From US9687529B2, “Method of controlling coagulation” (Duke University, priority 2011, dated 2017)
Values joined by “and” are separate entries in the source; they are usually repeats but may differ in a detail not shown here. Equal entries are not always repeated. “Also recorded” adds a separate entry of the source.

Key:
[1] = system: thrombin generation in normal human platelet poor plasma; experiment: Calibrated automated thrombography (CAT); type: biochemical
Description: Normal human platelet poor plasma (80 μL) was mixed with aptamer(s) (10 μL) in an Immunolon 2HB U Bottom Mictrotiter 96-well plate (Thermo Labsystems, Franklin, Mass.) and incubated at 37° C. for 5 min. PPP reagent (Diagnostica Stago, Parsippany, N.J.) (either 1 ρM or 5 ρM TF, 20 μL, Diagnostica Stago) was added, and the mixture was incubated at 37° C. for another 5 min. FluCa (Diagnostica Stago) (10 μL) was added to initiate the assay and thrombin generation was measured for 60 minutes at 37° C. with a Fluoroskan Ascent fluorometer (ThermoLabsystem, Helsinki, Finland) according to the manufacturer's instructions. The amount of thrombin generated was quantified by comparison to an assay with thrombin calibrator reagent (Diagnostica Stago) that has a known activity toward the fluorogenic substrate. The lag time, peak amount of thrombin generated, and endogenous thrombin potential (ETP) were automatically calculated by the Thrombinoscope software (Thrombinoscope BV, the Netherlands).
Thrombin is the final protease formed in the coagulation cascade, and the rate of thrombin generation and the total amount of thrombin generated is associated with blood clot formation and stability (Wolberg, Blood Rev 21:131-42 (2007)). To gain more information about the impact of aptamer anticoagulation on the kinetics of thrombin generation, the individual aptamers were analyzed with calibrated automated thrombography (CAT). The CAT assay measures real-time thrombin generation in plasma by monitoring cleavage of a thrombin-specific fluorogenic substrate in response to TF stimulation (Heruker et al, Pathophysiol Haemost Thromb 33: 4-15 (2003)). The parameters of thrombin generation analyzed include: the lag time (time until thrombin generation begins), the peak (the maximal amount of thrombin generated at a given time) and the endogenous thrombin potential (ETP, the total amount of thrombin generated). Similar to the aPTT and PT clotting assays, all of the individual aptamers dose-dependently impacted the various parameters of thrombin generation (FIG. 21 and Table 1). […] 9.3T minorly impacted all parameters of thrombin generation with the high TF reagent; however, because high concentrations of TF may bypass FIX activity by directly generating FXa, the manufacturer recommends low concentrations of TF for analyzing FIX deficient (i.e, Hemophilia B) plasma in the CAT.

[2] = system: clot formation in whole blood; experiment: Thromboelastography (TEG), whole blood stimulated with kaolin; type: cell-based, human
Description: Blood was drawn from healthy, consented volunteers under a Duke University Institutional Review Board approved protocol and anticoagulated with 3.2% sodium citrate. Whole blood (320 μL) was mixed with anticoagulant (heparin or aptamers) (10 μL) and kaolin (Haemonetics, Niles, Ill.) (10 μL) or CAT PRP reagent (Diagnostica Stago, 0.33 ρM TF final) (10 μL) was added to stimulate clotting. CaCl2 (20 μL) was immediately added to overcome the citrate, the mixture was added to a plain disposable plastic TEG cup (Haemonetics), and the assay was run according to the manufacturer's instructions. Clot formation at 37° C. was measured with a Thromboelastograph Analyzer (Haemonetics, Niles, Ill.) until a stable clot was formed (i.e., a maximum amplitude was reached) or for three hours with the aptamer combinations. The time lag time, α-angle, and maximum amplitude were automatically calculated by the TEG® Analytical Software version 4.2.3 (Haemonetics).
Although the aPTT, PT, and CAT assays provide basic information about dose-dependent anticoagulation, these assays are performed in an environment that lacks platelets. Platelets play a crucial role in clot formation by providing a membrane surface upon which the clotting factors assemble, by aggregating and becoming physically incorporated into the blood clot, and by releasing internal stores of agonists that amplify coagulation (Monroe et al, Arterioscler Thromb Vasc Biol 22:138 1-9 (2002)). Therefore, a study was made of aptamer anticoagulation with thromboelastography (TEG), which provides real-time information about the kinetics of clot formation in whole blood (Reikvam et al, Transfus Apher Sci; 40:119-23 (2009). The TEG assay uses mechanical motion to quantify the physical properties of clot formation, including the lag time (the time until clot formation), the α-angle (the rate of clot formation), and the maximum amplitude (the mechanical strength of the clot formed).

[3] = system: fibrin deposition on oxygenator membrane; experiment: Oxygenator membrane scanning electron microscopy; design: species or system human; settings: FIG. 25 doses: UFH 5 U/mL, 9.3T 1 μM, 11F7T 2 μM, R9D-14T 5 μM, 11F7T 0.5 μM+R9D-14T 5 μM
Description: After 2 hours of circulation (or until there was visible clot formation), the minicircuit was washed with three volumes (approximately 60 mL) of PBS at a flow rate of 50 mL/min. The oxygenator membrane was removed with forceps, washed with gentle rocking in PBS for approximately 30 sec, then removed and blotted. Three pieces approximately 10 mm×10 mm were excised from different areas of the membrane with a clean razor blade. The membrane pieces were fixed overnight in PBS with 4% formaldehyde and 2% glutaraldehyde, washed two times with PBS, then dehydrated in an ethanol gradient (30% to 100%). The membranes were subsequently submerged in tetramethylsilane (TMS) for 10 min, then removed and placed in a desiccator overnight. Desiccated membrane specimens measuring approximately 10 mm×7 mm were affixed with double sided tape to circular metal stubs approximately 14 mm in diameter. The specimens were gold sputter coated in a Denton Vacuum Desk IV® (Denton Vacuum LLC, Moorestown, N.J.) according to the manufacturer's instructions. The scanning electron microscopic (SEM) images were obtained with a FEI XL 30 FE SEM (FEI, Hillsboro, Oreg.).

## R9D-14T: prothrombin/thrombin aptamer, 58-base truncation of RNA9D-14, SEQ ID NO: 3 (GGCGGTCGATCACACAGTTCAAACGTAATAAGCCAATGTACGAGGCAGACGACTCGCC; 2'-fluoro at CT, RNA at AG, backbone and T or U not given here) [Aptamer R9D-14T]
[1]; RNA 625 nM, TF 5 ρM
  ETP: 1492.50 ± 54.94 nM·min
  Lag-time: 1.55 ± 0.08 min
  Peak: 314.82 ± 25.02 nM
  TTP: 3.88 ± 0.18 min
[1]; RNA 1,250 nM, TF 5 ρM
  ETP: 1293.00 ± 67.66 nM·min
  Lag-time: 1.55 ± 0.08 min
  Peak: 269.45 ± 13.17 nM
  TTP: 3.67 ± 0.18 min
[1]; RNA 2,500 nM, TF 5 ρM
  ETP: 1170.90 ± 90.47 nM·min
  Lag-time: 4.37 ± 0.71 min
  Peak: 192.66 ± 31.04 nM
  TTP: 7.64 ± 1.31 min
[1]; RNA 5,000 nM (5 μM), TF 5 ρM
  thrombin generation (in words): completely inhibited thrombin generation; also recorded: no thrombin generation detected
[2]; RNA 1.25 μM
  Angle: 60.4 ± 2.4 deg
  Lag-time: 7.1 ± 1.4 min
  Max. Amplitude: 62.0 ± 3.0 mm
[2]; RNA 2.0 μM
  Angle: 48.1 ± 9.7 deg
  Lag-time: 8.3 ± 2.0 min
  Max. Amplitude: 56.0 ± 6.3 mm
[2]; RNA 5.0 μM
  Angle: 30 deg and 30.0 ± 5.7 deg
  Lag-time: 21.5 min and 21.5 ± 4.9 min
  Max. Amplitude: 49.6 mm and 49.6 ± 3.6 mm
[3]
  fibrin deposition on oxygenator membrane, scanning electron micrographs (in words): obvious fibrin deposition on the membrane

## 9.3T: FIXa aptamer, 2'-fluoropyrimidine modified RNA, SEQ ID NO: 1 (AUGGGGACUAUACCGCGUAAUGCUGCCUCCCCAU; 2'-fluoro at CU, RNA at AG, backbone not given here) [Aptamer 9.3T]
[1]; RNA 15 nM, TF 1 ρM
  ETP: 1463.50 ± 19.59 nM·min
  Lag-time: 3.06 ± 0.15 min
  Peak: 195.04 ± 6.91 nM
  TTP: 7.34 ± 0.26 min
[1]; RNA 15 nM, TF 5 ρM
  ETP: 1812.50 ± 81.01 nM·min
  Lag-time: 1.72 ± 0.20 min
  Peak: 341.90 ± 12.54 nM
  TTP: 4.23 ± 0.24 min
[1]; RNA 30 nM, TF 1 ρM
  ETP: 1350.17 ± 28.02 nM·min
  Lag-time: 3.00 ± 0.10 min
  Peak: 147.88 ± 4.28 nM
  TTP: 8.12 ± 0.34 min
[1]; RNA 30 nM, TF 5 ρM
  ETP: 1723.67 ± 57.51 nM·min
  Lag-time: 1.56 ± 0.20 min
  Peak: 316.98 ± 3.28 nM
  TTP: 4.28 ± 0.40 min
[1]; RNA 60 nM, TF 1 ρM
  ETP: 1261.50 ± 64.85 nM·min
  Lag-time: 2.89 ± 0.15 min
  Peak: 110.65 ± 6.70 nM
  TTP: 8.95 ± 0.15 min
[1]; RNA 60 nM, TF 5 ρM
  ETP: 1741.10 ± 78.84 nM·min
  Lag-time: 1.70 ± 0.11 min
  Peak: 283.76 ± 3.20 nM
  TTP: 4.90 ± 0.31 min
[1]; RNA 120 nM, TF 1 ρM
  ETP: 1125.00 ± 31.79 nM·min
  Lag-time: 2.72 ± 0.05 min
  Peak: 86.13 ± 3.02 nM
  TTP: 9.34 ± 0.19 min
[1]; RNA 120 nM, TF 5 ρM
  ETP: 1674.50 ± 56.02 nM·min
  Lag-time: 1.60 ± 0.15 min
  Peak: 272.90 ± 9.97 nM
  TTP: 4.74 ± 0.37 min
[2]; RNA 0.5 μM
  Angle: 41.4 ± 0.5 deg
  Lag-time: 22.8 ± 2.0 min
  Max. Amplitude: 55.4 ± 3.2 mm
[2]; RNA 1.0 μM
  Angle: 37.6 deg and 37.6 ± 7.1 deg
  Lag-time: 25.5 min and 25.5 ± 1.8 min
  Max. Amplitude: 55.4 mm and 55.4 ± 2.6 mm
[2]; RNA 2.0 μM
  Angle: 36.9 ± 2.9 deg
  Lag-time: 29.9 ± 1.4 min
  Max. Amplitude: 55.9 ± 3.4 mm
[3]
  fibrin deposition on oxygenator membrane, scanning electron micrographs (in words): obvious fibrin deposition on the membrane

## 11F7T: FXa aptamer, 2'-fluoropyrimidine modified RNA, SEQ ID NO: 2 (GAGAGCCCCAGCGAGAUAAUACUUGGCCCCGCUCUU; 2'-fluoro at CU, RNA at AG, backbone not given here) [Aptamer 11F7T]
[1]; RNA 125 nM, TF 5 ρM
  ETP: 1612.90 ± 142.40 nM·min
  Lag-time: 3.00 ± 0.22 min
  Peak: 227.75 ± 43.47 nM
  TTP: 7.24 ± 0.77 min
[1]; RNA 250 nM, TF 5 ρM
  ETP: 1220.50 ± 182.02 nM·min
  Lag-time: 4.94 ± 0.38 min
  Peak: 120.68 ± 21.79 nM
  TTP: 11.70 ± 1.13 min
[1]; RNA 500 nM, TF 5 ρM
  ETP: 738.60 ± 202.92 nM·min
  Lag-time: 7.97 ± 0.93 min
  Peak: 65.56 ± 14.57 nM
  TTP: 16.47 ± 1.83 min
[1]; RNA 1,000 nM, TF 5 ρM
  ETP: 459.40 ± 199.39 nM·min
  Lag-time: 9.50 ± 1.00 min
  Peak: 36.84 ± 14.42 nM
  TTP: 20.10 ± 2.96 min
[2]; RNA 0.5 μM
  Angle: 40.3 ± 1.4 deg
  Lag-time: 15.6 ± 0.8 min
  Max. Amplitude: 52.4 ± 1.6 mm
[2]; RNA 1.0 μM
  Angle: 28.7 ± 5.0 deg
  Lag-time: 20.6 ± 3.0 min
  Max. Amplitude: 48.2 ± 3.7 mm
[2]; RNA 2.0 μM
  Angle: 18 deg and 18.0 ± 5.9 deg
  Lag-time: 39.6 min and 39.6 ± 9.1 min
  Max. Amplitude: 39.6 mm and 39.6 ± 4.4 mm
[3]
  fibrin deposition on oxygenator membrane, scanning electron micrographs (in words): obvious fibrin deposition on the membrane
